Columns and labels:
weeds = assay: Post-emergence test, Example B1: weeds overall, in words; type: in vivo, Apera, Alopecurus, Avena; details: herbicide 25 g/ha, where combined cloquintocet-mexyl 6.25 g/ha, MERGE 1%
Excerpt: (§1) A standard soil is used as cultivation substrate.
(§2) The rate of application of herbicide is in each case 25 g/ha; the rate of application of cloquintocet-mexyl is 6.25 g/ha. As oil additive, MERGE® is used in a concentration of 1% by weight of the spray mixture.

Avena = assay: Post-emergence test, Example B1: Avena; type: in vivo; details: greenhouse, herbicide 25 g/ha, where combined cloquintocet-mexyl 6.25 g/ha, MERGE 1% by weight of spray mixture, evaluated after 2 to 4 weeks, 100%=complete destruction
Excerpt: as §1, §2

Alopecurus = assay: Post-emergence test, Example B1: Alopecurus; type: in vivo; details: greenhouse, herbicide 25 g/ha, where combined cloquintocet-mexyl 6.25 g/ha, MERGE 1% by weight of spray mixture, evaluated after 2 to 4 weeks, 100%=complete destruction
Excerpt: as §1, §2

Apera = assay: Post-emergence test, Example B1: Apera; type: in vivo; details: greenhouse, herbicide 25 g/ha, where combined cloquintocet-mexyl 6.25 g/ha, MERGE 1% by weight of spray mixture, evaluated after 2 to 4 weeks, 100%=complete destruction
Excerpt: as §1, §2

| SMILES | Herbicidal action on the weeds (in words) (weeds) | Herbicidal action on Avena (Avena) [%] | Herbicidal action on Alopecurus (Alopecurus) [%] | Herbicidal action on Apera (Apera) [%] |
| --- | --- | --- | --- | --- |
| CCc1cc(C)cc(CC)c1-c1c(OC(=O)C(C)(C)C)n2n(c1=O)CCOCC2 [compound no. 1.008] | only slight to moderate herbicidal action | 20 | 20 | 25 |
| CCc1cc(C)cc(CC)c1C1C(=O)N2CCOCCN2C1=O [compound no. 1.007] | only slight to moderate herbicidal action | 10 | 10 | 60 |
